ChEMBL document CHEMBL2177099, “Discovery of 1-[4-(N-benzylamino)phenyl]-3-phenylurea derivatives as non-peptidic selective SUMO-sentrin specific protease (SENP)1 inhibitors” (Bioorg Med Chem Lett, 2012)
Activity calls are given as the source filed them. The calls are words filed in the database; no cut-off is given here.

What was measured:
HeLa [1] = assay: Inhibition of hypoxia-induced HIF1alpha accumulation in human HeLa cells after 6 hrs by Western blot analysis; type: functional, cell-based
HeLa [2] = details: Homo sapiens, 3 uM
Description: Inhibition of hypoxia-induced HIF1alpha accumulation in human HeLa cells at 3 uM after 6 hrs by Western blot analysis

[3] = target: T1, Thermolysin (Bacillus thermoproteolyticus) (UniProt P00800); assay: Inhibition of Bacillus thermoproteolyticus rokko thermolysin using FITC-Casein substrate at 10 to 100 uM by fluorescence assay
T1 sequence (whole entry): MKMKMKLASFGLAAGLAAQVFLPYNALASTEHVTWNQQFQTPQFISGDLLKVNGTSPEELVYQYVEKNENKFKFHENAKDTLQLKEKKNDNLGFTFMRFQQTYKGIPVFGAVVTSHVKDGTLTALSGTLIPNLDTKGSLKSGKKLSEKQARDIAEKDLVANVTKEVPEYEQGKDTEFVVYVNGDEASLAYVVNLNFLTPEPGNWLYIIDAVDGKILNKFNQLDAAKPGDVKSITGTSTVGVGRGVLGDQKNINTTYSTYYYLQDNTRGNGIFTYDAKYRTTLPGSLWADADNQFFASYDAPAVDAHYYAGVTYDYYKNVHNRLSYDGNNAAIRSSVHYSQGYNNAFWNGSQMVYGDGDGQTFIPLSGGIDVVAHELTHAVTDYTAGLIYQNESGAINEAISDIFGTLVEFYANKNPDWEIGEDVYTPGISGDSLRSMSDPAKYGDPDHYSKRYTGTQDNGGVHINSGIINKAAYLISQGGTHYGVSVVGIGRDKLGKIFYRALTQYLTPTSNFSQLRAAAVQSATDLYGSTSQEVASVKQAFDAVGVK

Bos taurus [4] = species: Bos taurus; assay: Inhibition of bovine pancreatic chymotrypsin using FITC-Casein substrate at 10 to 100 uM by fluorescence assay
Bos taurus [5] = species: Bos taurus; assay: Inhibition of bovine pancreatic trypsin using FITC-Casein substrate at 10 to 100 uM by fluorescence assay
[6] = target: T2, Sentrin-specific protease 2 (Homo sapiens) (UniProt Q9HC62); assay: Inhibition of recombinant human SENP2 catalytic domain assessed as release of fluorescent AMC from SUMO-1-AMC preincubated at 10 to 100 uM for 10 mins before substrate addition by fluorescence assay
T2 sequence (whole entry): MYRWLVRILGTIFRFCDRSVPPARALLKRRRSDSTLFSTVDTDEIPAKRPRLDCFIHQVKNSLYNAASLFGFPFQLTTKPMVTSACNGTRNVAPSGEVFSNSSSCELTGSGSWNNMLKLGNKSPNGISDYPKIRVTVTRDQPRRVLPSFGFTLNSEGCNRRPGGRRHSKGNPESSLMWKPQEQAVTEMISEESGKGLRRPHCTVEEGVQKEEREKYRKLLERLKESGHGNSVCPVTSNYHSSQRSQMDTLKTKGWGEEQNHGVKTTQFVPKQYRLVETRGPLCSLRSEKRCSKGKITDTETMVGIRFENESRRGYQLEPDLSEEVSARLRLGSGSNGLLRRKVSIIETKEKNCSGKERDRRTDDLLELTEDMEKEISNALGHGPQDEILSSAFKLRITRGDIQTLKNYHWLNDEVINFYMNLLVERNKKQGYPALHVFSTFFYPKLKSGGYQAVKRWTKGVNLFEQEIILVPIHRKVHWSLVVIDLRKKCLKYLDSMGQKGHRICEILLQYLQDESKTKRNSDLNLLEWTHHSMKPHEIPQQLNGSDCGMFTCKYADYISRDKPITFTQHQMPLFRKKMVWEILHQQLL

Row | inhibition [3] | inhibition (Bos taurus [4]) | inhibition (Bos taurus [5]) | inhibition [6] | SMILES | inhibition (HeLa [1]) | inhibition (HeLa [2])
1 | – | – | – | – | COC(=O)c1cccc(CNc2ccc(N(C)C(=O)Nc3ccccc3)cc2)c1 | Dose-dependent effect | Active
2 | inactive | inactive | inactive | inactive | CCOC(=O)c1cccc(CNc2ccc(N(C)C(=O)Nc3ccccc3)cc2)c1 | Dose-dependent effect | –
